Reference: article PMC8253220, “Molecular design, synthesis and in vitro biological evaluation of thienopyrimidine–hydroxamic acids as chimeric kinase HDAC inhibitors: a challenging approach to combat cancer” (Journal of Enzyme Inhibition and Medicinal Chemistry, 2021)
“And” between values parts separate entries of the source, which are not always exact repeats. Equal values may be shown once.

Assays:
Assay in all cases: NCI one-dose screen
Type in all cases: cell-based, human
[1] = test system: NCI/ADR-RES; details: Ovarian NCI/ADR-RES, 10 µM single dose
Procedure, shortened: (§1)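 One concentration (10 μM) applied to each line of the full NCI-60 panel; percent growth compared against untreated cells.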

[2] = test system: 786-0; details: Renal 786-0, 10 µM single dose
Procedure, shortened: as §1

[3] = test system: NCI-H322M; details: NSCLC NCI-H322M, 10 µM single dose
Procedure, shortened: as §1

[4] = test system: U251; details: CNS U251, 10 µM single dose
Procedure, shortened: (§2)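 Single dose of 10 μM tested across the full NCI-60 cell panel. Values are percent growth inhibition relative to untreated control cells, following standard NCI methodology.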

[5] = test system: BT-549; details: Breast BT-549, 10 µM single dose
Procedure, shortened: as §1

[6] = test system: SNB-19; details: CNS SNB-19, 10 µM single dose
Procedure, shortened: (§3)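 Following the standard NCI-60 protocol, compounds were applied once at 10 μM to all 60 cancer lines. Read-out is percent growth versus untreated controls, expressed as inhibition %.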

[7] = test system: NCI-H23; details: NSCLC NCI-H23, 10 µM single dose
Procedure, shortened: (§4)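 NCI-60 one-dose format: 10 μM compound; readout % growth inhibition relative to untreated cells.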

[8] = test system: M14; details: Melanoma M14, 10 µM single dose
Procedure, shortened: as §1

[9] = test system: SK-MEL-2; details: Melanoma SK-MEL-2, 10 µM single dose
Procedure, shortened: as §3

[10] = test system: A549/ATCC; details: NSCLC A549/ATCC, 10 µM single dose
Procedure, shortened: as §1

[11] = test system: CCRF-CEM; details: Leukemia CCRF-CEM, 10 µM single dose
Procedure, shortened: as §1

[12] = test system: SF-295; details: CNS SF-295, 10 µM single dose
Procedure, shortened: as §1

[13] = test system: SK-MEL-28; details: Melanoma SK-MEL-28, 10 µM single dose
Procedure, shortened: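 Single 10 μM dose, NCI-60 panel; read-out = % growth vs untreated controls → % inhibition.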

[14] = test system: UO-31; details: Renal UO-31, 10 µM single dose
Procedure, shortened: as §2

[15] = test system: TK-10; details: Renal TK-10, 10 µM single dose
Procedure, shortened: as §1

[16] = test system: OVCAR-8; details: Ovarian OVCAR-8, 10 µM single dose
Procedure, shortened: as §1

[17] = test system: HL-60(TB); details: Leukemia HL-60(TB), 10 µM single dose
Procedure, shortened: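 At 10 μM, a single concentration, compounds were evaluated for antiproliferative effect in the NCI 60-line screen, with growth expressed relative to untreated control cells.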

[18] = test system: RPMI-8226; details: Leukemia RPMI-8226, 10 µM single dose
Procedure, shortened: as §1

[19] = test system: UACC-62; details: Melanoma UACC-62, 10 µM single dose
Procedure, shortened: as §1

[20] = test system: SF-268; details: CNS SF-268, 10 µM single dose
Procedure, shortened: as §4

[21] = test system: HCT-116; details: Colon HCT-116, 10 µM single dose
Procedure, shortened: as §1

[22] = test system: DU-145; details: Prostate DU-145, 10 µM single dose
Procedure, shortened: as §1

[23] = test system: HT29; details: Colon HT29, 10 µM single dose
Procedure, shortened: as §1

[24] = test system: SR; details: Leukemia SR, 10 µM single dose
Procedure, shortened: as §1

[25] = test system: MDA-MB-435; details: Melanoma MDA-MB-435, 10 µM single dose
Procedure, shortened: as §1

[26] = test system: NCI-H522; details: NSCLC NCI-H522, 10 µM single dose
Procedure, shortened: as §2

[27] = test system: SF-539; details: CNS SF-539, 10 µM single dose
Procedure, shortened: as §4

[28] = test system: KM12; details: Colon KM12, 10 µM single dose
Procedure, shortened: as §4

[29] = test system: HCT-15; details: Colon HCT-15, 10 µM single dose
Procedure, shortened: as §1

[30] = test system: MOLT-4; details: Leukemia MOLT-4, 10 µM single dose
Procedure, shortened: as §4

[31] = test system: CAKI-1; details: Renal CAKI-1, 10 µM single dose
Procedure, shortened: as §1

[32] = test system: HOP-92; details: NSCLC HOP-92, 10 µM single dose
Procedure, shortened: as §1

[33] = test system: OVCAR-4; details: Ovarian OVCAR-4, 10 µM single dose
Procedure, shortened: as §1

[34] = test system: OVCAR-3; details: Ovarian OVCAR-3, 10 µM single dose
Procedure, shortened: as §1

[35] = test system: HS 578T; details: Breast HS 578T, 10 µM single dose
Procedure, shortened: as §1

[36] = test system: SNB-75; details: CNS SNB-75, 10 µM single dose
Procedure, shortened: as §2

COc1cccc(NC(=O)Nc2ccc(Nc3ncnc4sc(C(=O)NO)c(C)c34)cc2)c1 [Compound 7b, 1–(4-(6-(hydroxycarbamoyl)-5-methylthieno[2,3-d]pyrimidin-4-ylamino)phenyl)-3–(3-methoxyphenyl)urea] was tested, and the “Growth Percent” value [1] was 97.6% and 97.67%, the “Growth Percent” value [2] was 100.6% and 100.62% and the “Growth Percent” value [3] was 103.7%. For the same compound, the “Growth Percent” value [4] was 101.4% and 101.41%, the “Growth Percent” value [5] was 99.5% and 99.56% and the “Growth Percent” value [6] was 100.1% and 100.14%. For the same compound, the “Growth Percent” value [7] was 98.8% and 98.89%, the “Growth Percent” value [8] was 101.0% and 101.01% and the “Growth Percent” value [9] was 100.6% and 100.68%. For the same compound, the “Growth Percent” value [10] was 101.8% and 101.81%, the “Growth Percent” value [11] was 101.2% and 101.22% and the “Growth Percent” value [12] was 94.5% and 94.51%. The “Growth Percent” value [13] was 111.1% and 111.16%, the “Growth Percent” value [14] was 83.4% and 83.47% and the “Growth Percent” value [15] was 103.9% and 103.96%. The “Growth Percent” value [16] was 96.6% and 96.69%, the “Growth Percent” value [17] was 103.1% and 103.15% and the “Growth Percent” value [18] was 110.6% and 110.62%. The “Growth Percent” value [19] was 96.7% and 96.74%, the “Growth Percent” value [20] was 93.3% and 93.33% and the “Growth Percent” value [21] was 102.7% and 102.72%. For the same compound, the “Growth Percent” value [22] was 103.1% and 103.17%, the “Growth Percent” value [23] was 103.6% and 103.62% and the “Growth Percent” value [24] was 115.8% and 115.82%. For the same compound, the “Growth Percent” value [25] was 101.5% and 101.59%, the “Growth Percent” value [26] was 90.2% and 90.28% and the “Growth Percent” value [27] was 97.2% and 97.26%. The “Growth Percent” value [28] was 102.7% and 102.79%, the “Growth Percent” value [29] was 99.0% and 99.07% and the “Growth Percent” value [30] was 112.4% and 112.45%. For the same compound, the “Growth Percent” value [31] was 99.4% and 99.45%, the “Growth Percent” value [32] was 108.4% and 108.42% and the “Growth Percent” value [33] was 101.8% and 101.82%. The “Growth Percent” value [34] was 106.5% and 106.55%, the “Growth Percent” value [35] was 102.4% and 102.45% and the “Growth Percent” value [36] was 92.7% and 92.76%.
